Patent US9434711B2 (Janssen Pharmaceutica, NV, priority 2007, dated 2016)

Key:
Male Sprague Dawley rats [1] = experiment: Reversal of Icilin-Induced Behaviors in Rats; format: in vivo; settings: Rattus norvegicus, po, 1 h, 1 h post-icilin; for inhibition in vivo at 30 mg/kg: 30 mg/kg p.o.
Protocol: Male Sprague Dawley rats (225-450 g, Charles River Labs, n=4-6/treatment) were used to evaluate the ability of selected compounds of the formula (I) to reverse icilin-induced “wet-dog” shakes. Icilin was administered in PEG-400 or 10% solutol/H2O, at 1.0 or 3.0 mg/kg, i.p. and spontaneous “wet-dog” shakes (WDS) were counted 10-20 minutes post-icilin. […] Results are presented as a percent inhibition of shakes, which was calculated as [1-(test compound WDS count/vehicle WDS count)]×100.

canine TRPM8 = canine TRPM8 (Canis lupus familiaris, UniProt Q1A7N1); experiment: In Vitro Canine TRPM8 Functional Assay (Ca2+ fluorescence, icilin activation); format: cell-based; settings: for IC50: HEK293 cells stably expressing canine TRPM8, icilin activation, eight-point dose-response, read-out: IC50; for inhibition at 0.2 µM / % Inh @ 0.2 (μM): compound at 0.2 μM; for inhibition at 0.2 µM / inhibition at 0.5 µM / % Inh @ 0.2 (μM): canine TRPM8, icilin activation; for inhibition at 0.2 µM: read-out: % Inh @ 0.2; for inhibition at 0.5 µM: compound at 0.5 μM, read-out: % Inh @ 0.5
Chain of canine TRPM8 (Q1A7N1 1-1104): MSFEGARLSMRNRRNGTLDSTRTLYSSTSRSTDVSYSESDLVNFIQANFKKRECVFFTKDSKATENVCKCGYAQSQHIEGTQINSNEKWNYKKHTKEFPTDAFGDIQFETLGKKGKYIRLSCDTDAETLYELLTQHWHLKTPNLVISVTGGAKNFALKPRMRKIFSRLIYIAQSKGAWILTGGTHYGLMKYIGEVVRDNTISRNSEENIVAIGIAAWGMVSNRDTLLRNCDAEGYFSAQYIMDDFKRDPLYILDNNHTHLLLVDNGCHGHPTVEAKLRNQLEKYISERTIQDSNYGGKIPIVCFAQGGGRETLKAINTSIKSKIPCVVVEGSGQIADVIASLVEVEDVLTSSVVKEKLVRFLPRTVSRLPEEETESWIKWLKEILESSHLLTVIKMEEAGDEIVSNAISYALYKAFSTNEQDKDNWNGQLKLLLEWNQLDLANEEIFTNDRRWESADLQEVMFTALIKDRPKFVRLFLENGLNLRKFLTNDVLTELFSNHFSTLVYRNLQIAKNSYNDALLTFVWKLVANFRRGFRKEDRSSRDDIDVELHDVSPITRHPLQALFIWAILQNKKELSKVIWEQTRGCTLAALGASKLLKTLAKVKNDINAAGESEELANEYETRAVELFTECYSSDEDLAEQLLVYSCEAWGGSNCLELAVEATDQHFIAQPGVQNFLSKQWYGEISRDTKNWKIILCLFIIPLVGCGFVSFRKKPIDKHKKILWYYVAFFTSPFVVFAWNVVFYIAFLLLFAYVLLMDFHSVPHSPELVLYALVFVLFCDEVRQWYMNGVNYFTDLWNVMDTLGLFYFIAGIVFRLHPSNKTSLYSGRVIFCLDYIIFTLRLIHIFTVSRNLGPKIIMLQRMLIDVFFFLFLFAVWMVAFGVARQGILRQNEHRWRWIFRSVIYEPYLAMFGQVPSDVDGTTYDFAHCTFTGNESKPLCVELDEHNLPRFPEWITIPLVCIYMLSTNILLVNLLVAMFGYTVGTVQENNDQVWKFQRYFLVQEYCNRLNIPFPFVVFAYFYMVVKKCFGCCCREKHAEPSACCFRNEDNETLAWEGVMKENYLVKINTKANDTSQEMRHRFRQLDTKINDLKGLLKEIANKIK
How it was run: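 Readout is the intracellular Ca2+ fluorescence change, measured by FLIPR or FDSS, in HEK293 cells stably expressing canine TRPM8. Potency (EC50 or IC50) is fitted from eight concentrations averaged over quadruplicate wells.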

Male Sprague Dawley rats [2] = experiment: Chronic Constriction Injury (CCI)-Induced Model of Neuropathic Pain, Acetone-Induced Hypersensitivity; format: in vivo, rat; settings: for inhibition in vivo at 10 mg/kg: 10 mg/kg p.o.; for inhibition in vivo at 100 mg/kg: 100 mg/kg p.o.
Excerpt: Male Sprague Dawley rats (225-450 g; n=5-8/treatment) were used to evaluate the ability of selected compounds of the formula (I) to reverse CCI-induced cold hypersensitivity. Four loose ligatures of 4-0 chromic gut were surgically placed around the left sciatic nerve under inhalation anesthesia as described by Bennett et al (Bennett G J, Xie Y K. Pain 1988, 33(1): 87-107). Fourteen to 35 days following CCI surgery, subjects were placed in elevated observation chambers containing wire mesh floors and five applications of acetone (0.05 mL/application separated by approximately 5 minutes) were spritzed onto the plantar surface of the paw using a multidose syringe. An abrupt withdrawal or lifting of the paw was considered a positive response. The number of positive responses was recorded for each rat over the five trials. Following baseline withdrawal determinations, compounds of formula (I) are administered in an appropriate vehicle, such as hydroxypropyl-β-cyclodextrin (HP β CD), methylcellulose, Methocel, 10% Solutol, or H2O, or the like, by the appropriate route, i.p. or p.o. […] Results are presented as a percent inhibition of […], which was calculated for each subject as [1−(test compound withdrawals/pre-test withdrawals)]×100 and then averaged by treatment.

Male Sprague Dawley rats [3] = experiment: Inhibition of Icilin-Induced "Wet-Dog" Shakes in Rats; format: in vivo, rat; settings: Na salt form; for ED50: Rattus norvegicus, po, 0.5 h; for % Inhibition: dose 30 p.o.
Protocol: Male Sprague Dawley rats (220-450 g, Charles River Labs, n=6-9/treatment) were used to evaluate the ability of selected compounds of the formula (I) to block icilin-induced “wet-dog” shakes (WDS). Compounds of the formula (I) were administered in an appropriate vehicle, such as hydroxypropyl-β-cyclodextrin (HPβCD), methocellulose, 10% Solutol, or H2O, or the like, by the appropriate route, i.p. or p.o., 30-120 minutes before icilin. Icilin was administered in PEG-400 or 10% solutol/H2O, at 1.0 or 3.0 mg/kg, i.p. and spontaneous “wet-dog” shakes were counted 10-20 minutes post-icilin. Results are presented as a percent inhibition of shakes, which was calculated as [1-(test compound WDS count/vehicle WDS count)]×100.

[4] = Rattus norvegicus, po, 1 h, 30 mg/kg p.o., 10% Solutol, pretreatment 1 hr, CO2H form, read-out: Percent Inhibition
[5] = Rattus norvegicus, po, 1 h, HPbCD, pretreatment 1 hr, Na salt form, read-out: Percent Inhibition
[6] = Rattus norvegicus, po, 1 h, 10% Solutol, pretreatment 1 hr, CO2H form, read-out: Percent Inhibition

Row | IC50 (canine TRPM8) [nM] | inhibition at 0.5 µM (canine TRPM8) [%] | Compound | inhibition in vivo at 30 mg/kg (Male Sprague Dawley rats [1]) [%] | other results
1 | 12.2 | 101 | O=S(=O)(c1cccnc1)N(Cc1ccc(F)c(C(F)(F)F)c1)c1sc2ccccc2c1Br [Compound 188, N-(3-Bromo-benzo[b]thiophen-2-yl)-N-(4-fluoro-3-trifluoromethyl-benzyl)-pyridin-3-yl-sulfonamide] | 7 | inhibition at 0.2 µM (canine TRPM8): 99%
2 | 2.1 | 98 | O=S(=O)(c1ccccc1)N(Cc1ccc(F)c(F)c1)c1sc2ccccc2c1Br [Compound 148, N-(3-Bromo-benzo[b]thiophen-2-yl)-N-(3,4-difluoro-benzyl)-benzenesulfonamide] | 33 | 
3 | 2.5 | 99 | O=S(=O)(c1ccccc1)N(Cc1ccc(OC(F)(F)F)cc1)c1sc2ccccc2c1Br [Compound 174, N-(3-Bromo-benzo[b]thiophen-2-yl)-N-(4-trifluoromethoxy-benzyl)-benzenesulfonamide] | 45 | 
4 | 14.2 | 96 | O=S(=O)(c1ccccc1)N(Cc1ccccn1)c1sc2ccccc2c1Br [Compound 168, N-(3-Bromo-benzo[b]thiophen-2-yl)-N-(pyridin-2-ylmethyl)-benzenesulfonamide] | -29 | 
5 | 7.1 | 101 | O=S(=O)(c1cccnc1)N(Cc1ccc(F)c(F)c1)c1sc2ccccc2c1Br [Compound 149, N-(3-Bromo-benzo[b]thiophen-2-yl)-N-(3,4-difluoro-benzyl)-pyridin-3-yl-sulfonamide] | -3 | inhibition at 0.2 µM (canine TRPM8): 102%
6 | 18 |  | O=C(O)c1ccc(S(=O)(=O)N(CC2CC2)c2sc3ccccc3c2Br)cc1 [Compound 273, N-(3-Bromo-benzo[b]thiophen-2-yl)-N-(cyclopropylmethyl)-4-carboxy-benzenesulfonamide] |  | inhibition in vivo at 30 mg/kg (Male Sprague Dawley rats [2]; Rattus norvegicus, po, 0.5 h, 30 mg/kg p.o., HPbCD, pretreatment 0.5 hr, Na salt form, read-out: Percent Inhibition): 49%; inhibition at 0.2 µM (canine TRPM8): 96%; ED50 (Male Sprague Dawley rats [3]; HPbCD, 30 min pre-icilin): 53 mg/kg
7 | 5.7 | 96 | O=S(=O)(c1ccccc1)N(Cc1ccc(F)c(C(F)(F)F)c1)c1sc2ccccc2c1Br [Compound 177, N-(3-Bromo-benzo[b]thiophen-2-yl)-N-(4-fluoro-3-trifluoromethyl-benzyl)-benzenesulfonamide] | 66 | inhibition in vivo at 3 mg/kg (Male Sprague Dawley rats [1]; 3 mg/kg p.o.): 15%; inhibition in vivo at 10 mg/kg (Male Sprague Dawley rats [1]; 10 mg/kg p.o.): 53%; inhibition in vivo at 16.6 mg/kg (Male Sprague Dawley rats [1]; 16.6 mg/kg p.o.): 54%; inhibition in vivo at 100 mg/kg (Male Sprague Dawley rats [1]; 100 mg/kg p.o.): 52%; inhibition in vivo at 30 mg/kg (Male Sprague Dawley rats [2]; Rattus norvegicus, ip, 3 h, 30 mg/kg i.p., 10% Solutol, pretreatment 3 hr, CO2H form, read-out: Percent Inhibition): 60%; inhibition in vivo at 3 mg/kg (Male Sprague Dawley rats [2]; Rattus norvegicus, po, 1 h, 3 mg/kg p.o., 10% Solutol, pretreatment 1 hr, CO2H form, read-out: Percent Inhibition): 23%; inhibition in vivo at 10 mg/kg (Male Sprague Dawley rats [2]; [6]): 49%; inhibition in vivo at 30 mg/kg (Male Sprague Dawley rats [2]; [4]): 46%; inhibition in vivo at 100 mg/kg (Male Sprague Dawley rats [2]; [6]): 70%

Continued, molecule first:

Row | Compound | IC50 (canine TRPM8) [nM] | inhibition at 0.5 µM (canine TRPM8) [%] | inhibition in vivo at 30 mg/kg (Male Sprague Dawley rats [1]) [%] | other results
8 | Cc1c(N(Cc2ccc(OC(F)(F)F)cc2)S(=O)(=O)c2cccnc2)sc2ccccc12 [Compound 13, N-(3-Methyl-benzo[b]thiophen-2-yl)-N-(4-trifluoromethoxy-benzyl)-pyridine-3-sulfonamide] | 3 | 97 | 28 | 
9 | Cc1c(N(Cc2ccc(F)c(F)c2)S(=O)(=O)c2ccccc2)sc2ccccc12 [Compound 125, N-(3,4-Difluoro-benzyl)-N-(3-methyl-benzo[b]thiophen-2-yl)-benzenesulfonamide] | 5 | 99 | 39 | 
10 | Cc1c(N(Cc2ccc(F)c(F)c2)S(=O)(=O)c2cn(C)cn2)sc2ccccc12 [Compound 2, N-(3,4-Difluoro-benzyl)-N-(3-methyl-benzo[b]thiophen-2-yl)-1-methyl-1H-imidazole-4-sulfonamide] | 16.3 | 99 | 18 | 
11 | O=S(=O)(c1ccccc1)N(Cc1ccc(F)c(C(F)(F)F)c1)c1sc2ccccc2c1Cl [Compound 7, N-(3-Chloro-benzo[b]thiophen-2-yl)-N-(4-fluoro-3-trifluoromethyl-benzyl)-benzenesulfonamide] | 7.3 | 97 | 65 | inhibition in vivo at 30 mg/kg (Male Sprague Dawley rats [2]; Rattus norvegicus, ip, 2 h, 30 mg/kg i.p., 10% Solutol, pretreatment 2 hr, CO2H form, read-out: Percent Inhibition): 66%; inhibition in vivo at 30 mg/kg (Male Sprague Dawley rats [2]; [4]): 47%
12 | O=C(O)c1ccc(S(=O)(=O)N(CCC(F)(F)F)c2sc3ccccc3c2Br)cc1 [Compound 271, N-(3-Bromo-benzo[b]thiophen-2-yl)-N-(3,3,3-trifluoro-propyl)-4-carboxy-benzenesulfonamide] |  |  |  | inhibition in vivo at 10 mg/kg (Male Sprague Dawley rats [2]; [5]): 24%; inhibition in vivo at 100 mg/kg (Male Sprague Dawley rats [2]; [5]): 56%; inhibition at 0.2 µM (canine TRPM8): 98%; ED50 (Male Sprague Dawley rats [3]; Water, 30 min pre-icilin): 5.7 mg/kg
13 | CC(C)(O)c1c(N(CCC(F)(F)F)S(=O)(=O)c2ccc(C(=O)[O-])cc2)sc2ccccc12.[Na+] [Compound 505, Sodium, N-(3-(1-Hydroxy-1-methyl-ethyl)-benzo[b]thiophen-2-yl)-N-(3,3,3-trifluoro-propyl)-4-carboxy-benzenesulfonamide] | 24 |  |  | Percent Inhibition (Male Sprague Dawley rats [2]; 30 mg/kg p.o., HPbCD, pretreatment 1 hr, Na salt form): 11%; % Inh @ 0.2 (μM) (canine TRPM8): 98%; % Inhibition (Male Sprague Dawley rats [3]; HPbCD, 60 min pre-icilin): 72%
14 | Cc1c(N(Cc2cccc3cccnc23)S(=O)(=O)c2cccnc2)sc2ccccc12 [Compound 14, N-(3-Methyl-benzo[b]thiophen-2-yl)-N-(quinolin-8-ylmethyl)-pyridine-3-sulfonamide] | 18.9 | 99 | -16 | 
15 | Cc1c(N(CCC2CC2)S(=O)(=O)c2ccc(C(=O)[O-])cc2)sc2ccccc12.[Na+] [Compound 400, Sodium, N-(2-Cyclopropylethyl)-N-(3-methylbenzo[b]thiophen-2-yl)-4-carboxy-benzenesulfonamide] | 5 |  |  | Percent Inhibition (Male Sprague Dawley rats [2]; 30 mg/kg p.o., Water, pretreatment 1 hr, Na salt form): 40%; Percent Inhibition (Male Sprague Dawley rats [2]; 30 mg/kg p.o., Water, pretreatment 3 hr, Na salt form): 25%; % Inh @ 0.2 (μM) (canine TRPM8): 102%; % Inhibition (Male Sprague Dawley rats [3]; HPbCD, 30 min pre-icilin): 84%
